Measurements reported in ChEMBL document CHEMBL6182851, “Discovery of dual CDK4/6 and BRD4 inhibitor as apoptosis and autophagy inducers against NSCLC in vitro and in vivo” (Eur J Med Chem, 2025).
Activity calls are given as the source filed them. The rule behind the calls is not given here.

How the values were obtained:
NCI-H460 [1] = test: Induction of apoptosis in human NCI-H460 cells assessed as early apoptotic cells at 20 uM incubated for 48 hrs in presence of ribociclib by Annexin V-PE/7-AAD staining based flow cytometric analysis (reference value: 3.58 %); assay type: functional
NCI-H460 [2] = test: Induction of cell cycle arrest in human NCI-H460 cells assessed as accumulation of cells at G2 phase at 20 uM incubated for 48 hrs by PI staining based flow cytometric analysis (reference value: 11.0 %); assay type: functional
NCI-H1299 [3] = test: Antitumor activity against human NCI-H1299 cells assessed as inhibition of cell viability incubated for 48 hrs in presence of ribociclib by MTT assay; assay type: functional, cell-based; settings: NCI-H1299, 48 h
A549 [4] = test: Antitumor activity against human A549 cells assessed as inhibition of cell viability incubated for 48 hrs in presence of ribociclib by MTT assay; assay type: functional, cell-based; settings: A549, 48 h
NCI-H460 [5] = test: Induction of autophagy in human NCI-H460 cells assessed as increase in number of autophagosomes at 20 uM in presence of ribociclib incubated for 48 hrs by MDC staining and LC3B immunofluorescence analysis; assay type: functional, cell-based
NCI-H460 [6] = test: Induction of cell cycle arrest in human NCI-H460 cells assessed as accumulation of cells at G1 phase at 20 uM in presence of ribociclib incubated for 48 hrs by PI staining based flow cytometric analysis (reference value: 56.7 %); assay type: functional
A549 [7] = test: cells; settings: Homo sapiens, A549, 48 h
Description: Antitumor activity against human A549 cells assessed as inhibition of cell viability incubated for 48 hrs by MTT assay

NCI-H460 [8] = test: Antitumor activity against human NCI-H460 cells assessed as inhibition of cell viability incubated for 48 hrs in presence of ribociclib by MTT assay; assay type: functional, cell-based; settings: NCI-H460, 48 h
NCI-H460 [9] = test: Induction of cell cycle arrest in human NCI-H460 cells assessed as accumulation of cells at S phase at 20 uM in presence of ribociclib incubated for 48 hrs by PI staining based flow cytometric analysis (reference value: 33.3 %); assay type: functional
NCI-H460 [10] = test: Antitumor activity against human NCI-H460 cells xenografted in female BALB/c nude mouse assessed as tumor growth inhibition at 50 mg/kg, ip administered for 21 consecutive days relative to control; assay type: functional; settings: NCI-H460, 504 h, time 21 day, read-out: TGI
NCI-H460 [11] = test: Induction of autophagy in human NCI-H460 cells assessed as increase in autophagosomes at 20 uM incubated for 48 hrs by MDC staining and LC3B immunofluorescence analysis; assay type: functional, cell-based
NCI-H460 [12] = test: Induction of apoptosis in human NCI-H460 cells assessed as early apoptotic cells at 20 uM incubated for 48 hrs by Annexin V-PE/7-AAD staining based flow cytometric analysis (reference value: 3.58 %); assay type: functional
NCI-H460 [13] = test: Induction of apoptosis in human NCI-H460 cells assessed as necrotic cells at 20 uM incubated for 48 hrs by Annexin V-PE/7-AAD staining based flow cytometric analysis (reference value: 0.79 %); assay type: functional
NCI-H460 [14] = test: Induction of cell cycle arrest in human NCI-H460 cells assessed as accumulation of cells at G2 phase at 20 uM in presence of ribociclib incubated for 48 hrs by PI staining based flow cytometric analysis (reference value: 11.0 %); assay type: functional
NCI-H460 [15] = test: Antitumor activity against human NCI-H460 cells xenografted in female BALB/c nude mouse assessed as tumor growth inhibition at 50 mg/kg, ip administered for 21 consecutive days in presence of ribociclib relative to control; assay type: functional; settings: NCI-H460, 504 h, time 21 day, read-out: TGI
NCI-H1299 [16] = test: cells; settings: Homo sapiens, NCI-H1299, 48 h
Description: Antitumor activity against human NCI-H1299 cells assessed as inhibition of cell viability incubated for 48 hrs by MTT assay

NCI-H460 [17] = test: Induction of cell cycle arrest in human NCI-H460 cells assessed as accumulation of cells at S phase at 20 uM incubated for 48 hrs by PI staining based flow cytometric analysis (reference value: 33.3 %); assay type: functional
NCI-H460 [18] = test: Induction of apoptosis in human NCI-H460 cells assessed as late apoptotic cells at 20 uM incubated for 48 hrs in presence of ribociclib by Annexin V-PE/7-AAD staining based flow cytometric analysis (reference value: 3.76 %); assay type: functional
NCI-H460 [19] = test: Induction of apoptosis in human NCI-H460 cells assessed as necrotic cells at 20 uM incubated for 48 hrs in presence of ribociclib by Annexin V-PE/7-AAD staining based flow cytometric analysis (reference value: 0.79 %); assay type: functional
[20] = biological target: Bromodomain-containing protein 4 (Homo sapiens) (UniProt O60885); settings: dose 1000.0 nM
Description: Inhibition of BRD4 BD2 (unknown origin) assessed as inhibition ratio at 1000 nM relative to control

NCI-H460 [21] = test: Induction of cell cycle arrest in human NCI-H460 cells assessed as accumulation of cells at G1 phase at 20 uM incubated for 48 hrs by PI staining based flow cytometric analysis (reference value: 56.7 %); assay type: functional
NCI-H460 [22] = test: cells; settings: Homo sapiens, NCI-H460, 48 h
Description: Antitumor activity against human NCI-H460 cells assessed as inhibition of cell viability incubated for 48 hrs by MTT assay

NCI-H460 [23] = test: Induction of autophagy in human NCI-H460 cells assessed as increase in acidic vesicles at 20 uM incubated for 48 hrs by MDC staining and LC3B immunofluorescence analysis; assay type: functional, cell-based
NCI-H460 [24] = test: Induction of apoptosis in human NCI-H460 cells assessed as late apoptotic cells at 20 uM incubated for 48 hrs by Annexin V-PE/7-AAD staining based flow cytometric analysis (reference value: 3.76 %); assay type: functional

IC50 (NCI-H1299 [3]): 8.16 µM
IC50 (A549 [4]): 18.8 µM
IC50 (A549 [7]): > 40 µM
IC50 (NCI-H460 [8]): 10.3 µM
IC50 (NCI-H1299 [16]): 18.4 µM
inhibition [20]: 89.8%
IC50 (NCI-H460 [22]): > 40 µM
SMILES: COc1cc(OC)c2c(=O)[nH]c(-c3cc(C)c(OCCO)c(C)c3)nc2c1 [APABETALONE]
Activity (NCI-H460 [1]): 13.8%
Activity (NCI-H460 [2]): 13%
Activity (NCI-H460 [5]): inactive
Activity (NCI-H460 [6]): 87.9%
Activity (NCI-H460 [9]): 9.38%
inhibition in vivo at 50 mg/kg (NCI-H460 [10]): 37.5%
Activity (NCI-H460 [11]): inactive
Activity (NCI-H460 [12]): 2.05%
Activity (NCI-H460 [13]): 1.59%
Activity (NCI-H460 [14]): 4.4%
inhibition in vivo at 50 mg/kg (NCI-H460 [15]): 72%
Activity (NCI-H460 [17]): 30.1%
Activity (NCI-H460 [18]): 5.71%
Activity (NCI-H460 [19]): 1.11%
Activity (NCI-H460 [21]): 56%
Activity (NCI-H460 [23]): inactive
Activity (NCI-H460 [24]): 4.99%
